Experiments:
Assay type in all cases: cell-based
[1] = tested on: PD-1 expressing CD3+ normal human T cells; test: PD-1 surface expression on CD3+ T cells of healthy donors after treatment (1, 18, 24 Hr); conditions: for % reduction in % of T cells expressing PD-1: vs untreated
Method: (§1) Peripheral blood lymphocytes (PBLs) were separated from normal human leukocytes of healthy donors by Ficol separation and CD3 positive T cells were separated by anti-CD3 antibody-coupled magnetic beads. The CD3+ T cells were cultured in RPMI 1640 medium supplemented with 10% heat inactivated fetal calf serum (FCS), 1% L-Glutamine, 1% sodium pyruvate, 1% non-essential amino acids, and 1% antibiotics. The cells were usually maintained for, for on average 24 hours after their separation before various molecules were added and their effects on the T cells were measured. […] It was therefore tested if neurotransmitters, neuropeptides, and/or modulators of voltage-gated ion channels can reduce PD-1 on the cell surface of T cells. Such a reduction would allow the T cells to escape the tumor-induced T cell suppression, and the activated T cells could then attach the cancer cells. As such, the expression of PD-1 on the surface of these treated and untreated T cells was monitored. […] Shorter in vitro incubation times are frequently preferable when cells are going to subsequently be returned to a subject, as they end to decrease the risk of an adverse reaction.

[2] = tested on: PD-1 expressing large proliferating CD3+ normal human T cells; test: PD-1 expression on large proliferating T cells (FSC/SSC gating), 1 Hr treatment; conditions: for % reduction in % of large T cells expressing PD-1: vs untreated
Method: as §1
(§2) CD3 positive T cells of patients are a heterogenous mix of different types of T cells. […] Using this FCS and SSC analysis, T cells can be distinguished and separated by size into large proliferating T cells and smaller non-proliferating T cells.

[3] = tested on: PD-1 expressing smaller non-proliferating CD3+ normal human T cells; test: PD-1 expression on smaller non-proliferating T cells (FSC/SSC gating), 1 Hr treatment; conditions: for % reduction in % of smaller T cells expressing PD-1: vs untreated
Method: as §1, §2

| Molecule | % of T cells expressing PD-1 ([1]; 1 Hr treatment, 10^−8M) [%] | % reduction in % of T cells expressing PD-1 ([1]; 1 Hr treatment, 10^−8M) [%] | % of T cells expressing PD-1 ([1]; 24 Hr treatment, 10^−7M) [%] | % reduction in % of T cells expressing PD-1 ([1]; 24 Hr treatment, 10^−7M) [%] | % of T cells expressing PD-1 ([1]; 24 Hr treatment, 10^−8M) [%] | % reduction in % of T cells expressing PD-1 ([1]; 24 Hr treatment, 10^−8M) [%] | % of T cells expressing PD-1 ([1]; 18 Hr treatment, 10^−7M) [%] | % reduction in % of T cells expressing PD-1 ([1]; 18 Hr treatment, 10^−7M) [%] | % of large T cells expressing PD-1 ([2]; concentration not given) [%] | % reduction in % of large T cells expressing PD-1 ([2]; concentration not given) [%] | % of smaller T cells expressing PD-1 ([3]; concentration not given) [%] | % reduction in % of smaller T cells expressing PD-1 ([3]; concentration not given) [%] | also measured |
| --- | --- | --- | --- | --- | --- | --- | --- | --- | --- | --- | --- | --- | --- |
| CCCN(CCC)C1CCc2ccc(O)cc2C1 (centres unmarked) [7-OH-DPAT] | 21.65 | 42 | 5.12 | 75.85 | 13.6 | 35.85 |  |  |  |  |  |  |  |
| NC[C@@H]1O[C@H](C23CC4CC(CC(C4)C2)C3)Cc2c1ccc(O)c2O [A77636] | 27.25 | 25 | 12.7 | 37.84 | 14.7 | 28.05 | 27.10 | 21.90 |  |  |  |  | % of large T cells expressing PD-1 ([2]; 10^−8M): 20.5%; % reduction in % of large T cells expressing PD-1 ([2]; 10^−8M): 4.7%; % of smaller T cells expressing PD-1 ([3]; 10−8M): 40.8%; % reduction in % of smaller T cells expressing PD-1 ([3]; 10−8M): 7.1% |
| Cc1cccc(NC(=O)CN2CCC(c3ccccn3)CC2)c1 [A412997] | 17.4 | 52 |  |  |  |  |  |  |  |  |  |  |  |
| Cc1onc(O)c1CC(N)C(=O)O (centres unmarked) [AMPA, alph-amino-3-hydroxy-5-methyl-4-isoxazalepropinoic acid] | 26.4 | 28 |  |  |  |  | 28.55 | 17.72 |  |  |  |  |  |
| N#Cc1cc2[nH]c(=O)c(=O)[nH]c2cc1[N+](=O)[O-] [CNQX] |  |  |  |  |  |  |  |  |  |  |  |  | % of T cells expressing PD-1 ([1]; 24 Hr treatment, 0.5*10^-6M): 13.7%; % reduction in % of T cells expressing PD-1 ([1]; 24 Hr treatment, 0.5*10^-6M): 32.93%; % of T cells expressing PD-1 ([1]; 24 Hr treatment, 0.5*10^−5M): 12.9%; % reduction in % of T cells expressing PD-1 ([1]; 24 Hr treatment, 0.5*10^−5M): 36.84% |
| Oc1ccc(C2CNCCc3c2cc(O)c(O)c3Cl)cc1 (centres unmarked) [Fenoldopam (powder), Fenoldopam] |  |  | 21.3 | −4.26 | 14.7 | 28.05 | 25.75 | 25.79 |  |  |  |  | effect on PD-1 expressing T cells ([1]; incubated for 24 hours): did not have a positive effect |
| Oc1ccc(C2CNCCc3c2cc(O)c(O)c3Cl)cc1 (centres unmarked) [Fenoldopam - Corlopam, Fenoldopam] |  |  |  |  |  |  | 27.87 | 19.74 |  |  |  |  |  |
| OC1(c2ccc(Cl)cc2)CCN(Cc2c[nH]c3ccccc23)CC1 [L-741,626] |  |  |  |  |  |  |  |  | 19.0 | 11.6 | 38.6 | 12.1 |  |
| Cc1c(C2CCN(CCc3ccccc3)CC2)noc1-c1ccc(Cl)cc1 [L-741,742] |  |  |  |  |  |  |  |  | 19.3 | 10.2 | 37.8 | 13.9 |  |
| O=C(NCCCCN1CCN(c2cccc(Cl)c2Cl)CC1)c1ccc2c(c1)Cc1ccccc1-2 [NGB 2904] |  |  |  |  |  |  |  |  | 22.5 | −4.7 | 40.2 | 8.4 |  |
| CN[C@H](CC(=O)O)C(=O)O [NMDA, N-methyl-D-aspartic acid] | 30.35 | 17 |  |  |  |  | 24.75 | 28.67 |  |  |  |  |  |
| CN1CCc2cc(Cl)c(O)cc2[C@H]2c3ccccc3CC[C@@H]21 [SCH 39166] |  |  |  |  |  |  |  |  | 19.8 | 7.9 | 40.1 | 8.7 |  |
| Dendrotoxin K | 34.6 | 25 | 16.2 | 20.69 | 16.2 | 20.69 | 23.30 | 32.85 |  |  |  |  |  |

Source: patent US12455279B2, “Personalized immunotherapy for rejuvenating activating and strengthening exhausted and dysfunctional T cells, reducing PD-1, and improving immune function” (priority 2018, dated 2025)
